Data set [1] deals with 4th instars of larvae of Spodoptera littoralis. The experiment in a line: Insecticidal bioassay screening, castor leaf dip, 4th instar larvae. The class given is in vivo. The note with it: for Toxic ratio: 4th larvae, fenoxycarb's LC50/the compound's LC50 × 100. How it is done:
(§1) Five concentrations (200, 100, 50, 25, 12.5 ppm) were designed for this synthetic compound and the reference fenoxycarb compound as the dynamic ingredients based on ppm via diluting the commercial formulation.
(§2) In this experiment, castor leaves are immersed in each of the previously prepared concentrations of the components for 10 seconds and then left to dry for 60 minutes. Larvae of the second and fourth instars of each checked strain are prepared with treated leaves in gauze-covered glass containers for 72 hrs. An untreated control is made in which leaves are dipped in triton x-100 and distilled water only. Then the preserved leaves were removed & fresh, untreated leaves were provided for 72 hours. Three replicates (10 larvae each) were checked for each concentration. Daily inspection was carried out for all treatments and mortality percentages were recorded 3 days (72 hours) after treatment. The average mortality percentage was corrected employing Abbott's formula. The corrected mortality rate for each of the previously synthesized compounds is statistically calculated according to Finney (1970). Through this rate, the corresponding concentration test lines (LDP lines) are assessed. Fifty and ninety percent mortality are determined, and the regression values for the checked products were previously evaluated.

Data set [2] deals with 2nd instars of larvae of Spodoptera littoralis. The experiment in a line: Insecticidal bioassay screening, castor leaf dip, 2nd instar larvae. The data set is classed as in vivo. The note with it: for Toxic ratio: 2nd larvae, fenoxycarb's LC50/the compound's LC50 × 100. Here is the method: as §1, §2
[3] abbreviates: Spodoptera littoralis, foliar, 72 h.

Converted amounts (≈) assume the structure as drawn. Where two headings read alike, the source gives them in different places.

Consider `OC(COc1ccc2ccccc2c1)CN1CCN(CC(O)COc2ccc3ccccc3c2)CC1` (centres unmarked) [3,3′-(piperazine-1,4-diyl)bis(1-(naphthalen-2-yloxy)propan-2-ol)], for which the LC50 entry was “about 86.98 ppm” in data set [1] (in vivo) and “about 42.05 ppm” in data set [2] (2nd instars of larvae of Spodoptera littoralis, after 72 hours of treatment).

For the compound `CCOC(=O)NCCOc1ccc(Oc2ccccc2)cc1` [Fenoxycarb, reference compound], the Toxic ratio in data set [1] (72 h) and in data set [2] (72 h) was 100 in each case. This compound also gave an LC50 in data set [2] (setting [3]) of 2.73 µg/mL (≈ 9.06 µM).

On to `OC(COc1ccc2ccccc2c1)CN1CCN(CC(O)COc2ccc3ccccc3c2)CC1` (centres unmarked) [Compound 9, 3,3′-(piperazine-1,4-diyl)bis(1-(naphthalen-2-yloxy)propan-2-ol)], for which the Toxic ratio in data set [1] (72 h) was found to be 49.7; in data set [2] (72 h) it was 6.51. Further, the 50% lethal concentration (LC50) stood at 87 µg/mL (≈ 179 µM) in data set [1] (setting [3]); 42 µg/mL (≈ 86.4 µM) in data set [2] (Spodoptera littoralis, foliar, 2nd larvae of S. littoralis, after 72 h of treatment, treated castor leaves, read-out: LC50); 42 µg/mL (≈ 86.4 µM) in data set [2] (foliar, against Spodoptera littoralis under laboratory conditions, instar not stated, read-out: LC50). The “activity against Spodoptera littoralis” value in data set [2] (verbal summary of Table 1, compared with fenoxycarb) is on record as “active”.

A word on the LC50: it is the concentration that kills 50% of the test population.

The values are drawn from patent US11930815B1, “3,3′-(piperazine-1,4-diyl)bis(1-(naphthalen-2-yloxy)propan-2-ol) as insecticidal agent” (priority 2023, dated 2024).
